Values joined by “and” are separate entries in the source; they are usually repeats but may differ in a detail not shown here. Equal values may be shown once. Toxic doses and inconclusive results are not listed.
Tested on: L1210 leukemia ip in BDF1 mice, survival T/C
Test: NCI In Vivo Anticancer Drug Screen. Data for tumor model L1210 Leukemia (intraperitoneal) in B6D2F1 (BDF1) mice
Settings: endpoint: mean survival time, higher = longer survival
Procedure, shortened: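 In this screen, tumor-bearing mice given compound are compared to those given vehicle, and their survival values are reported as a treated-to-control quotient.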

For `NC(CSC(c1ccccc1)(c1ccccc1)c1ccccc1)C(=O)O` (stereo not given), the T/C (dose: 1.0 mg/kg/injection, schedule: Q01DX Z (ip), vehicle: carboxymethylcellulose (CMC)) was 97 % of control and 102 % of control, the T/C (dose: 1.0 mg/kg/injection, schedule: Q01DX Z (ip), vehicle: other) was 109 % of control and the T/C (dose: 1.0 mg/kg/injection, schedule: Q01DX Z (ip), vehicle: saline) was 109 % of control. For the same compound, the T/C (dose: 1.95 mg/kg/injection, schedule: Q03HX006 (iv), vehicle: clinical formulation) was 106 % of control, the T/C (dose: 3.9 mg/kg/injection, schedule: Q03HX006 (iv), vehicle: clinical formulation) was 101 % of control and the T/C (dose: 4.0 mg/kg/injection, schedule: Q03HX024 (oral), vehicle: water) was 107 % of control. The T/C (dose: 4.1 mg/kg/injection, schedule: Q03HX024 (ip), vehicle: clinical formulation) was 107 % of control, the T/C (dose: 4.1 mg/kg/injection, schedule: Q03HX024 (ip), vehicle: saline) was 114 % of control and the T/C (dose: 4.1 mg/kg/injection, schedule: Q03HX024 (ip), vehicle: water) was 111 % of control. For the same compound, the T/C (dose: 4.4 mg/kg/injection, schedule: Q03HX024 (ip), vehicle: water) was 106 % of control, the T/C (dose: 5.0 mg/kg/injection, schedule: Q01DX Z (ip), vehicle: carboxymethylcellulose (CMC)) was 108 % of control and 123 % of control and the T/C (dose: 5.0 mg/kg/injection, schedule: Q01DX Z (ip), vehicle: other) was 115 % of control. The T/C (dose: 5.0 mg/kg/injection, schedule: Q01DX Z (ip), vehicle: saline) was 117 % of control, the T/C (dose: 5.4 mg/kg/injection, schedule: Q03HX024 (ip), vehicle: saline) was 111 % of control and the T/C (dose: 6.0 mg/kg/injection, schedule: Q03HX024 (oral), vehicle: water) was 118 % of control. The T/C (dose: 6.25 mg/kg/injection, schedule: Q01DX015 (oral), vehicle: saline) was 108 % of control, the T/C (dose: 6.25 mg/kg/injection, schedule: Q01DX015 (sc), vehicle: saline) was 105 % of control and the T/C (dose: 6.6 mg/kg/injection, schedule: Q03HX024 (ip), vehicle: water) was 124 % of control. The T/C (dose: 7.2 mg/kg/injection, schedule: Q03HX024 (ip), vehicle: clinical formulation) was 124 % of control, the T/C (dose: 7.81 mg/kg/injection, schedule: Q03HX006 (iv), vehicle: clinical formulation) was 103 % of control and the T/C (dose: 7.81 mg/kg/injection, schedule: Q03HX012 (ip), vehicle: clinical formulation) was 108 % of control. The T/C (dose: 7.81 mg/kg/injection, schedule: Q03HX012 (ip), vehicle: water) was 121 % of control, the T/C (dose: 8.75 mg/kg/injection, schedule: Q03HX008 (ip), vehicle: other) was 113 % of control and the T/C (dose: 9.0 mg/kg/injection, schedule: Q03HX024 (oral), vehicle: clinical formulation) was 105 % of control. For the same compound, the T/C (dose: 9.0 mg/kg/injection, schedule: Q03HX024 (oral), vehicle: saline) was 105 % of control, the T/C (dose: 9.0 mg/kg/injection, schedule: Q03HX024 (oral), vehicle: water) was 115 % of control and the T/C (dose: 10.0 mg/kg/injection, schedule: Q01DX Z (ip), vehicle: carboxymethylcellulose (CMC)) was 119 % of control. For the same compound, the T/C (dose: 12.5 mg/kg/injection, schedule: Q01DX009 (ip), vehicle: clinical formulation) was 116 % of control, the T/C (dose: 12.5 mg/kg/injection, schedule: Q01DX009 (ip), vehicle: other) was 123 % of control and the T/C (dose: 12.5 mg/kg/injection, schedule: Q01DX009 (ip), vehicle: water) was 116 % of control. For the same compound, the T/C (dose: 12.5 mg/kg/injection, schedule: Q01DX015 (ip), vehicle: saline) was 151 % of control, the T/C (dose: 12.5 mg/kg/injection, schedule: Q01DX015 (oral), vehicle: saline) was 114 % of control and the T/C (dose: 12.75 mg/kg/injection, schedule: Q03HX024 (ip), vehicle: water) was 119 % of control. The T/C (dose: 14.0 mg/kg/injection, schedule: Q03HX024 (oral), vehicle: clinical formulation) was 122 % of control, the T/C (dose: 15.62 mg/kg/injection, schedule: Q03HX006 (iv), vehicle: clinical formulation) was 103 % of control and the T/C (dose: 15.62 mg/kg/injection, schedule: Q03HX012 (ip), vehicle: water) was 152 % of control. For the same compound, the T/C (dose: 16.87 mg/kg/injection, schedule: Q03HX024 (ip), vehicle: other) was 151 % of control, the T/C (dose: 17.0 mg/kg/injection, schedule: Q01DX009 (ip), vehicle: other) was 109 % of control and the T/C (dose: 17.5 mg/kg/injection, schedule: Q01DX005 (ip), vehicle: other) was 114 % of control. For the same compound, the T/C (dose: 17.5 mg/kg/injection, schedule: Q01DX009 (ip), vehicle: other) was 113 % of control, the T/C (dose: 17.5 mg/kg/injection, schedule: Q## X006 (ip), vehicle: other) was 116 % of control and the T/C (dose: 22.5 mg/kg/injection, schedule: Q03HX024 (ip), vehicle: water) was 92 % of control. The T/C (dose: 25.0 mg/kg/injection, schedule: Q01DX009 (ip), vehicle: clinical formulation) was 117 % of control, the T/C (dose: 25.0 mg/kg/injection, schedule: Q01DX009 (ip), vehicle: other) was 119 % of control and the T/C (dose: 25.0 mg/kg/injection, schedule: Q01DX009 (ip), vehicle: water) was 110 % of control. The T/C (dose: 27.0 mg/kg/injection, schedule: Q03HX024 (oral), vehicle: clinical formulation) was 152 % of control, the T/C (dose: 31.25 mg/kg/injection, schedule: Q03HX006 (iv), vehicle: clinical formulation) was 116 % of control and the T/C (dose: 31.25 mg/kg/injection, schedule: Q03HX012 (ip), vehicle: clinical formulation) was 118 % of control. For the same compound, the T/C (dose: 31.25 mg/kg/injection, schedule: Q03HX012 (ip), vehicle: water) was 118 % of control, the T/C (dose: 35.0 mg/kg/injection, schedule: Q03HX008 (ip), vehicle: other) was 122 % of control and the T/C (dose: 35.0 mg/kg/injection, schedule: Q03HX024 (ip), vehicle: other) was 107 % of control. For the same compound, the T/C (dose: 35.0 mg/kg/injection, schedule: Q04DX003 (ip), vehicle: clinical formulation) was 96 % of control, the T/C (dose: 35.0 mg/kg/injection, schedule: Q04DX003 (ip), vehicle: other) was 113 % of control and the T/C (dose: 35.0 mg/kg/injection, schedule: Q## X006 (ip), vehicle: other) was 124 % of control. The T/C (dose: 35.5 mg/kg/injection, schedule: Q01DX009 (ip), vehicle: other) was 107 % of control, the T/C (dose: 47.0 mg/kg/injection, schedule: Q04DX003 (ip), vehicle: other) was 119 % of control and the T/C (dose: 48.0 mg/kg/injection, schedule: Q03HX024 (oral), vehicle: clinical formulation) was 106 % of control. The T/C (dose: 50.0 mg/kg/injection, schedule: Q01DX009 (oral), vehicle: other) was 123 % of control, the T/C (dose: 50.0 mg/kg/injection, schedule: Q01DX Z (ip), vehicle: carboxymethylcellulose (CMC)) was 102 % of control and the T/C (dose: 52.8 mg/kg/injection, schedule: Q03HX024 (ip), vehicle: clinical formulation) was 105 % of control. For the same compound, the T/C (dose: 52.8 mg/kg/injection, schedule: Q04DX003 (ip), vehicle: clinical formulation) was 95 % of control and 105 % of control, the T/C (dose: 70.0 mg/kg/injection, schedule: Q01DX001 (ip), vehicle: other) was 121 % of control and the T/C (dose: 70.0 mg/kg/injection, schedule: Q03HX008 (ip), vehicle: other) was 101 % of control. For the same compound, the T/C (dose: 70.0 mg/kg/injection, schedule: Q04DX003 (ip), vehicle: clinical formulation) was 107 % of control, the T/C (dose: 70.0 mg/kg/injection, schedule: Q## X006 (ip), vehicle: other) was 121 % of control and the T/C (dose: 78.0 mg/kg/injection, schedule: Q02DX005 (ip), vehicle: other) was 152 % of control. The T/C (dose: 78.0 mg/kg/injection, schedule: Q04DX003 (ip), vehicle: other) was 114 % of control, the T/C (dose: 78.0 mg/kg/injection, schedule: Q08DX002 (ip), vehicle: other) was 110 % of control and the T/C (dose: 80.0 mg/kg/injection, schedule: Q03HX024 (ip), vehicle: clinical formulation) was 115 % of control. For the same compound, the T/C (dose: 80.0 mg/kg/injection, schedule: Q04DX003 (ip), vehicle: clinical formulation) was 94 % of control and 108 % of control, the T/C (dose: 100.0 mg/kg/injection, schedule: Q01DX009 (ip), vehicle: saline with Tween-80) was 108 % of control and the T/C (dose: 100.0 mg/kg/injection, schedule: Q01DX009 (oral), vehicle: other) was 118 % of control. For the same compound, the T/C (dose: 100.0 mg/kg/injection, schedule: Q01DX Z (ip), vehicle: other) was 115 % of control, the T/C (dose: 100.0 mg/kg/injection, schedule: Q01DX Z (ip), vehicle: saline) was 150 % of control and the T/C (dose: 100.0 mg/kg/injection, schedule: Q02DX005 (oral), vehicle: other) was 121 % of control. The T/C (dose: 112.0 mg/kg/injection, schedule: Q03HX024 (oral), vehicle: clinical formulation) was 96 % of control, the T/C (dose: 112.0 mg/kg/injection, schedule: Q03HX024 (oral), vehicle: saline) was 103 % of control and the T/C (dose: 112.0 mg/kg/injection, schedule: Q04DX003 (ip), vehicle: clinical formulation) was 122 % of control. For the same compound, the T/C (dose: 125.0 mg/kg/injection, schedule: Q02DX009 (ip), vehicle: other) was 97 % of control, the T/C (dose: 130.0 mg/kg/injection, schedule: Q08DX002 (ip), vehicle: other) was 124 % of control and the T/C (dose: 140.0 mg/kg/injection, schedule: Q01DX001 (ip), vehicle: other) was 118 % of control. For the same compound, the T/C (dose: 150.0 mg/kg/injection, schedule: Q01DX Z (ip), vehicle: saline) was 109 % of control, the T/C (dose: 160.0 mg/kg/injection, schedule: Q03HX024 (ip), vehicle: saline) was 110 % of control and the T/C (dose: 240.0 mg/kg/injection, schedule: Q03HX024 (ip), vehicle: saline) was 92 % of control. The T/C (dose: 250.0 mg/kg/injection, schedule: Q02DX009 (ip), vehicle: other) was 103 % of control, the T/C (dose: 250.0 mg/kg/injection, schedule: Q02DX009 (oral), vehicle: other) was 121 % of control and the T/C (dose: 250.0 mg/kg/injection, schedule: Q04DX005 (oral), vehicle: other) was 121 % of control. The T/C (dose: 250.0 mg/kg/injection, schedule: Q08DX003 (oral), vehicle: other) was 111 % of control, the T/C (dose: 280.0 mg/kg/injection, schedule: Q01DX001 (ip), vehicle: other) was 107 % of control and the T/C (dose: 280.0 mg/kg/injection, schedule: Q04DX003 (ip), vehicle: saline) was 107 % of control. For the same compound, the T/C (dose: 400.0 mg/kg/injection, schedule: Q01DX009 (oral), vehicle: other) was 120 % of control, the T/C (dose: 500.0 mg/kg/injection, schedule: Q08DX003 (oral), vehicle: other) was 124 % of control and the T/C (dose: 800.0 mg/kg/injection, schedule: Q08DX002 (oral), vehicle: other) was 113 % of control. For the same compound, the T/C (dose: 1000.0 mg/kg/injection, schedule: Q02DX009 (oral), vehicle: other) was 112 % of control and the T/C (dose: 2000.0 mg/kg/injection, schedule: Q08DX003 (oral), vehicle: other) was 151 % of control.
